{"source": "patent US7964629B2", "about": "“Inhibitors of isoprenylcysteine carboxyl methyltransferase” (Duke Universtiy, priority 2005, dated 2011)", "key": {"Yes-GFP in MDCK cells": {"test_system": "Yes-GFP in MDCK cells", "experiment": "Localization of Yes-GFP in MDCK cells (control)", "assay_type": "cell-based", "settings": "10, 20, 30 μM", "method": "(§1) FIGS. 3A and 3B. Impact of cysmethynil treatment on Ras localization and signaling. FIG. 3A. Mislocalization of GFP Ras in cysmethynil treated cells. […] Live cells were imaged on a spinning disk confocal microscope. FIG. 3B. Impact of cysmethynil treatment on EGF-stimulated protein phosphorylation. […] Where indicated, cells were treated with EGF for the final 10 min prior to harvesting. Cell lysates containing equal amounts of protein were resolved on a 13% SDS-polyacrylamide gel and probed with antiphospho-Akt, antiphospho-p42/44 MAPK or anti-β-tubulin antibody as indicated. MDCK cells stably expressing GFP-H-Ras, GFP-K-Ras or GFP-N-Ras were grown on 35 mm coverslip dishes (MatTek Corporation, Ashland, Mass.) treated with poly-D-lysine. MDCK cells expressing […] were prepared by transient transfection of the Yes-GFP construct (McCabe and Berthiaume, Mol Cell Biol 10:3771-3786 (1999)) using Superfect reagent (Quiagen, Valencia, Calif.) following the manufacturer's instructions. […] Cells were imaged 72 h after drug treatment (24 h for transiently transfected cells) on an Olympus IX70 inverted microscope (Melville, N.Y.) with an UltraView spinning-disk confocal (PerkinElmer LAS, Wellesley, Mass.) and a Krypton/Argon laser, 488 nm line, attached to a cooled-CCD camera (Hamamatsu, Bridgewater, N.J.). […]"}, "FTase": {"biological_target": "FTase (Homo sapiens, UniProt P49354+P49356)", "experiment": "FTase inhibition (results not shown)", "assay_type": "biochemical", "settings": "concentrations up to 50 μM"}, "GGTase-I": {"biological_target": "GGTase-I (Homo sapiens, UniProt P49354+P53609)", "experiment": "GGTase-I inhibition (results not shown)", "assay_type": "biochemical", "settings": "concentrations up to 50 μM"}, "[1]": {"test_system": "DKOB8/GFP-Icmt colon cancer cells", "experiment": "Soft agar growth assay, DKOB8/GFP-Icmt", "assay_type": "cell-based", "settings": "20 μM, three weeks; elevated Icmt activity", "method": "(§2) FIGS. 4A-4C. Overexpression of Icmt rescues EGF-stimulated MAPK activation and anchorage-independent growth in cysmethynil-treated cells. FIG. 4A. Creation of cell lines stably overexpressing Icmt. DKOB8 cells were engineered to stably express either GFP alone or a GFP-Icmt fusion protein. Membrane fractions from GFP and GFP-ICMT expressing lines were assayed for Icmt activity using the BFC assay. FIG. 4B. Overexpression of Icmt restores EGF-stimulated MAPK activation in cysmethynil-treated cells. […] Where indicated, cells were treated with EGF for the final 10 min prior to harvesting. Cell lysates containing equal amounts of protein were resolved on a 13% SDS-polyacrylamide gel and probed with antiphospho-p42/44 MAPK or, as a control, antiphospho NFκB antibody as indicated. FIG. 4C. […] After 3 weeks of growth, colonies were stained with MTT and imaged. Soft agar culture media was prepared with 10% FBS in 1× minimum essential medium (MEM) alpha. […] Cells were harvested by trypsinization at ˜80% confluence, mixed into top agar (10,000 cells/plate; 0.3% noble agar in soft agar culture media) and poured onto prepared plates. […] For each condition, triplicate samples (each consisting of three plates) were prepared. […]"}, "[2]": {"test_system": "Icmt+/+ mouse embryonic fibroblasts", "experiment": "Cell growth determination, wild-type fibroblasts", "assay_type": "cell-based", "settings": "15, 20, 30 μM; 10% serum; six days", "method": "(§3) FIGS. 2A-2C. […] Media and drug were replaced daily, and cell growth was monitored for six days. Data represent the mean and standard deviation of four replicate wells. (FIG. 2A) Icmt^+/+ cells; (FIG. 2B) Icmt^−/− cells; (C) Icmt^−/− cells stably transfected with a gene expressing human ICMT (Icmt^−/−/ICMT cells).\n(§4) Cell growth assays were performed in a 96-well plate format. Briefly, 500 to 1000 cells were plated into 96-well plates. After the cells were allowed to attach for 24 h, media was removed and replaced with media containing either compound or vehicle. Media and drug were replaced every 24 h throughout the assay. Cell determinations were made at the times indicated in the respective figure by adding 19 μl of CellTiter 96 AqueousOne solution to each well followed by incubation of the plates in the dark at 37° C. for two hr after which the absorbance at 490 nm was read. Background absorbance from blank wells containing only media with compound or vehicle was subtracted from each test well. Typically, 3-6 replicate wells were employed for each point in each assay."}, "[3]": {"test_system": "GFP-tagged K-Ras in MDCK cells", "experiment": "Localization of GFP-K-Ras in MDCK cells", "assay_type": "cell-based", "settings": "10, 20, 30 μM; 72 h", "method": "as §1"}, "[4]": {"biological_target": "SssI DNA methyltransferase (Spiroplasma monobiae, UniProt P15840)", "sequence (P15840 whole entry)": "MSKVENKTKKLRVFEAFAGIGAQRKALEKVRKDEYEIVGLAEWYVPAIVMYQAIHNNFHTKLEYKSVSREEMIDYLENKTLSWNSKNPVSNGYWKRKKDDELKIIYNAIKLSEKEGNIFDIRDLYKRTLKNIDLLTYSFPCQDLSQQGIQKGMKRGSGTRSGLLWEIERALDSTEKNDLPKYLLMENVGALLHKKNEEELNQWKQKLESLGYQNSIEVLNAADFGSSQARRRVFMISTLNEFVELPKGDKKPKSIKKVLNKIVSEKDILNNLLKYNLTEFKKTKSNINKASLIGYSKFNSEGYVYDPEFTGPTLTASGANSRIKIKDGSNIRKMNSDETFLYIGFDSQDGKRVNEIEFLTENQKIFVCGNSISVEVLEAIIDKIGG", "experiment": "AdoMet-dependent DNA methyltransferase inhibition (results not shown)", "assay_type": "biochemical", "settings": "concentrations up to 50 μM"}, "Rce1 protease": {"biological_target": "T1, Rce1 protease (Homo sapiens, UniProt Q9Y256)", "T1 construct": "made in house; host or cells: Sf9 insect cells; membranes", "T1 sequence (Q9Y256 1-329)": "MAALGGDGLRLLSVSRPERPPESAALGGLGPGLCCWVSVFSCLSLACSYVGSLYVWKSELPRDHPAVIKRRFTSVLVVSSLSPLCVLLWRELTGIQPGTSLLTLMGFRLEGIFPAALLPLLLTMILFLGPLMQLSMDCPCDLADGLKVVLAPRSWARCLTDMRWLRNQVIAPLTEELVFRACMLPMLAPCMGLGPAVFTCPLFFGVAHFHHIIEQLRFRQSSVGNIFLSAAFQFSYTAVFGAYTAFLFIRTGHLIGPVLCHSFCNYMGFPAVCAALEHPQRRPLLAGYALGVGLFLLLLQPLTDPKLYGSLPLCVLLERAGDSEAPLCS", "experiment": "Rce1 protease inhibition (results not shown)", "assay_type": "biochemical", "settings": "concentrations up to 50 μM"}, "Icmt−/−/ICMT cells": {"test_system": "Icmt−/−/ICMT cells", "experiment": "Cell growth determination, Icmt−/− cells expressing human ICMT", "assay_type": "cell-based, mouse", "settings": "15, 20, 30 μM; 10% serum; six days", "method": "as §3, §4"}, "[5]": {"test_system": "DKOB8/GFP colon cancer cells", "experiment": "Soft agar growth assay, DKOB8/GFP", "assay_type": "cell-based", "settings": "three weeks", "method": "as §2"}, "[6]": {"test_system": "Rac1 in MDA-MB-231 breast cancer cells", "experiment": "Immunoblot of steady-state Rac level", "assay_type": "cell-based", "settings": "20 μM, 6 day treatment", "method": "The impact of Icmt inhibition on function of the geranylgeranylated GTPases Rho and Rac in cells has been examined. This study was carried out in MD-MBA-231 breast cancer cells. Tumorigenesis and metastatic behavior of these cells is dependent on high levels of Rho GTPases in particular. […] Cells were harvested and lysates containing equal amounts of protein were resolved by SDS-PAGE and subjected to immunoblot analysis with specific antibodies to RhoA (FIG. 7A), or Rac1 (FIG. 7B). As a control, immunoblot analysis for α-tubulin was carried out on all samples."}}}
{"smiles": "CCCCCCCCn1cc(CC(N)=O)c2cc(-c3cccc(C)c3)ccc21", "note": "[cysmethynil, 2-[5-(3-methylphenyl)-1-octyl-1H-indol-3-yl]acetamide]", "values": [{"measurement": "plasma membrane localization of Yes-GFP", "setting": "Yes-GFP in MDCK cells", "result": "did not affect"}, {"measurement": "inhibition of FTase", "setting": "FTase", "result": "did not inhibit"}, {"measurement": "inhibition of GGTase-I", "setting": "GGTase-I", "result": "did not inhibit"}, {"measurement": "ability of cells to form colonies in soft agar", "setting": "[1]", "result": "rescue the ability of the cells to form colonies"}, {"measurement": "cell growth", "setting": "[2]", "result": "dose-dependent inhibition of growth"}, {"measurement": "localization of GFP-K-Ras", "setting": "[3]", "result": "dose-dependent mislocalization"}, {"measurement": "inhibition of SssI DNA methyltransferase", "setting": "[4]", "result": "nor did it inhibit"}, {"measurement": "inhibition of Rce1 protease", "setting": "Rce1 protease", "result": "did not inhibit"}, {"measurement": "cell growth", "setting": "Icmt−/−/ICMT cells", "result": "regained sensitivity"}, {"measurement": "ability of cells to form colonies in soft agar", "setting": "[5]; 20 μM", "result": "dramatically reducing the ability of cells to form colonies"}, {"measurement": "ability to grow in soft agar", "setting": "[5]; 10 or 20 μM", "result": "significantly impaired"}, {"measurement": "Rac levels reduced", "setting": "[6]", "result": "> 80", "unit": "%"}]}
